Patent publication US20120070852A1, “ASSAY” (IMPERIAL INNOVATIONS LIMITED, priority 2008, published 2012)

Target: T1, p300 catalytic domain (Homo sapiens, UniProt Q09472)
T1 construct: 40 ng/ml recombinant purified p300 catalytic domain (Millipore); purchased Millipore
T1 sequence (Q09472 1287-1663 limits assumed): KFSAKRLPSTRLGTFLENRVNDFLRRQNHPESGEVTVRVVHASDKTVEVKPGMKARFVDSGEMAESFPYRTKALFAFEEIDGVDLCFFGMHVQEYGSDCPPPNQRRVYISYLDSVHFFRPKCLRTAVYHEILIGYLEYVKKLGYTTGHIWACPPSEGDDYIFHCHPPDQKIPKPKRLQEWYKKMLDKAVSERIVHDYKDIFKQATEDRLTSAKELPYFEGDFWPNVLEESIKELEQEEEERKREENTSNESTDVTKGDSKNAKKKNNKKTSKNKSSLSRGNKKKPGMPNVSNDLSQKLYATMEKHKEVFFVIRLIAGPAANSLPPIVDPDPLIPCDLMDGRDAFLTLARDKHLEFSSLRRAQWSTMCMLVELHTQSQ
Test: QD-FRET p300 HAT assay, inhibitor response
Format: biochemical
Conditions: 40 ng/ml p300 catalytic domain, 100 μM acetyl-CoA, 25 μM substrate peptide, 2 hr at 30° C.
Procedure: p300 assay: In a final volume of 14 μl, 25 μM substrate peptide was incubated with 40 ng/ml recombinant purified p300 catalytic domain (Millipore) in the presence or absence of 100 μM acetyl-CoA (Sigma-Alrich) and different concentrations of anacardic acid in 50 mM Tris-HCl buffer (pH 8.0) containing 0.1% (w/v) BSA (reaction buffer) for 2 hr at 30° C. An aliquot of this reaction mixture was transferred to a 10 μl solution of 50 nM quantum dots and 300 nM Alexa Fluor 647-labelled anti-AcK antibody to achieve a peptide to Qdot ratio of 40:1 and the mixture allowed to incubate for 30 min at room temperature. Fluorescence intensity data were collected with […] on a SpectraMax M5 microplate reader (Molecular Devices) using a 400 nm excitation source.
A synthetic peptide substrate for p300 containing an appending hexahistidine motif was exposed to p300 enzyme in the presence of acetyl-CoA to allow enzymatic acetylation of the peptide. […] This acetylation event was detected by means of an anti-acetyl lysine antibody labelled with a fluorescent dye, which binds selectively to the acetylated lysine residues of the quantum dot-bound peptide. […] This is indicated in the fluorescence spectra as a concomitant decrease in emission at 605 nm and enhanced emission at 670 nm from the Qdot and dye molecules respectively—see FIG. 8.

## CCCCCCCCCCCCCCCc1cccc(O)c1C(=O)O [anacardic acid]
  effect of serial dilutions of inhibitor on dye-specific emission at 670 nm (energy transfer): dose-dependent decrease in dye-specific emission at 670 nm
